Tested on: peripheral blood mononuclear cells (PBMC)
Experiment: Cytokine and immune-function gene expression of PBMC in vitro (qRT-PCR, 41 immune-related genes)
Type: cell-based, human
Protocol: After a screening visit at which blood was drawn to test for IgG antibody against HSV-1 and subjects were interviewed for inclusion/exclusion criteria, selected subjects returned for blood draws on day 1. After the blood draw on day 1, subjects in group A only were dosed with SADBE. A petrolatum donut was applied with a cotton swab to form about a 1 cm diameter donut on skin on the inner aspect of the upper arm. Then a separate cotton swab was dipped in a 2% SADBE solution (w/v) in DMSO, and the swab was then used to apply about 10-20 mg of solution over about a 1 cm diameter circle within the petrolatum donut. Immediately after application, the application site was covered with TEGADERM. Subjects were advised to remove the TEGADERM and rinse and wipe the spot three hours later. The group A subjects then returned for blood draws on days 15 and 57 and were queried about adverse events on those dates.
PBMC were isolated using SepMate PBMC isolation tubes (Stem Cell Technologies, Vancouver, Canada) and Ficoll-Paque according to the manufacturer's instructions. PBMC were isolated and suspended in negative control medium at 2 million cells/ml. PBMC suspension (100 μL) was added to 100 μL of medium in quadruplicate in 96-well plates. The plates were prepared in advance and stored at −70° C. The wells were in five different conditions in quadruplicate with these final concentrations after addition of the 100 μL of PBMC suspension in negative control medium. • 1. Negative control in medium (RPMI with glutamine and pen/strep, supplemented with 10% human A/B serum). • 2. Medium plus 16 μg/ml protein from heat-inactivated HSV-1-infected Vero cell extracts. • 3. Medium plus heat-inactivated HSV-1 cell-free virus at a final 7.5 million pfu/ml. • 4. Medium plus Candida cell extract. (Greer item number M15A50, 20,000 pnu/ml allergenic extract mixed molds Candida albicans, was diluted 1/50 into medium). • 5. Positive control, medium plus 10 μg/ml concanavalin A.
Two plates were created for each subject at each collection point. One plate was incubated for 2 days at 37° C. in a humidified 5% CO2 atmosphere and then RNA was isolated from the pooled contents of the 4 wells of a given condition for a specific patient, and the RNA was stored at −70° C. and subsequently used for quantitative real time PCR analysis of gene expression of 41 immune-related genes.
As noted above, after 2 days of growth of the PBMC in a 37° C. humidified 5% CO2 incubator in a 96-well plate, four wells of a single condition (negative control, positive control, heat-inactivated HSV-1, HSV-1-infected cell extracts, or Candida extract) with cells from a single subject (200 μL in each well) were pooled, and the RNA was immediately isolated with Trizol reagent and chloroform by Qiagen RNeasy MiniElute clean up kit Qiagen cat #74204, according to manufacturer's instructions into a final volume of 13 μL, and then flash frozen on powdered dry ice, and stored at −70° C. in aliquots of 3 μL for RNA quantification and 10 μL for PCR analysis.
RNA was preamplified with the Qiagen RT2 PreAMP cDNA synthesis kit (Ref. 330451) and custom RT2 PreAmp primer mix (Ref. 330141) starting with about 50 ng RNA according to the procedure of RT preamp cDNA synthesis handbook date March 2011, pages 17-20. The amplification reactions (final 120 μL) were frozen at −70° C. and used for qPCR analysis the next day.
qPCR was done with the Qiagen RT PCR profiler gene analysis kit (catalog number 330451) using RT2 Sybr Green Rox qPCR Mastermix (24) (Part 330523) and Custom RT2 PCR array plates (Ref. 330171). For this 675 μL 2×RT2 SYBR green mastermix, 51 μL pre-AMP synthesis reaction, and 623 μL RNase free water were mixed, and then 25 μL of the mixture was added to 48 wells on the left or right half of the custom PCR plate. The PCR instrument was Applied Biosystems 7900HT fast real time PCR. […]

[1] = Group A, HSV-infected cell extracts

CCCCOc1c(OCCCC)c(=O)c1=O [SADBE, 3,4-Dibutoxy-3-cyclobutene-1,2-dione]
Ratio of absolute IFNG gene expression in group A vs. Groups B + C pooled (Candida, group A day 57 after SADBE): 2.684 | CCL2 ratio of PBMC absolute gene expression day 15/day 1 (Group A, Candida): 0.73 | CCL2 ratio of PBMC absolute gene expression day 57/day 1 (Group A, Candida): 1.16 | CCL3 ratio of PBMC absolute gene expression day 15/day 1 (Group A, Candida): 0.33 | CCL3 ratio of PBMC absolute gene expression day 57/day 1 (Group A, Candida): 1.79 | CCL7 ratio of PBMC absolute gene expression day 15/day 1 (Group A, Candida): 0.66 | CCL7 ratio of PBMC absolute gene expression day 57/day 1 (Group A, Candida): 2.03 | CCR5 ratio of PBMC absolute gene expression day 15/day 1 (Group A, Candida): 1.16 | CCR5 ratio of PBMC absolute gene expression day 57/day 1 (Group A, Candida): 1.42 | CD80 ratio of PBMC absolute gene expression day 15/day 1 (Group A, Candida): 0.75 | CD80 ratio of PBMC absolute gene expression day 57/day 1 (Group A, Candida): 1.57 | CXCL2 ratio of PBMC absolute gene expression day 15/day 1 (Group A, Candida): 0.39 | CXCL2 ratio of PBMC absolute gene expression day 57/day 1 (Group A, Candida): 1.10 | CXCL5 ratio of PBMC absolute gene expression day 15/day 1 (Group A, Candida): 0.46 | CXCL5 ratio of PBMC absolute gene expression day 57/day 1 (Group A, Candida): 1.45 | CXCL9 ratio of PBMC absolute gene expression day 15/day 1 (Group A, Candida): 2.52 | CXCL9 ratio of PBMC absolute gene expression day 57/day 1 (Group A, Candida): 14.21 | CXCL10 ratio of PBMC absolute gene expression day 15/day 1 (Group A, Candida): 2.87 | CXCL10 ratio of PBMC absolute gene expression day 57/day 1 (Group A, Candida): 12.8 | CXCL11 ratio of PBMC absolute gene expression day 15/day 1 (Group A, Candida): 1.06 | CXCL11 ratio of PBMC absolute gene expression day 57/day 1 (Group A, Candida): 2.53 | DDX58 ratio of PBMC absolute gene expression day 15/day 1 (Group A, Candida): 1.08 | DDX58 ratio of PBMC absolute gene expression day 57/day 1 (Group A, Candida): 1.29 | FOXP3 ratio of PBMC absolute gene expression day 15/day 1 (Group A, Candida): 1.16 | FOXP3 ratio of PBMC absolute gene expression day 57/day 1 (Group A, Candida): 2.01 | GATA3 ratio of PBMC absolute gene expression day 15/day 1 (Group A, Candida): 1.12 | GATA3 ratio of PBMC absolute gene expression day 57/day 1 (Group A, Candida): 0.28 | ICAM1 ratio of PBMC absolute gene expression day 15/day 1 (Group A, Candida): 1.03 | ICAM1 ratio of PBMC absolute gene expression day 57/day 1 (Group A, Candida): 1.27 | IFNA1 ratio of PBMC absolute gene expression day 15/day 1 (Group A, Candida): 1.42 | IFNA1 ratio of PBMC absolute gene expression day 57/day 1 (Group A, Candida): 2.13 | IFNB1 ratio of PBMC absolute gene expression day 15/day 1 (Group A, Candida): 1.03 | IFNB1 ratio of PBMC absolute gene expression day 57/day 1 (Group A, Candida): 0.93 | IFNG ratio of PBMC absolute gene expression day 15/day 1 (Group A, Candida): 0.81 | IFNG ratio of PBMC absolute gene expression day 57/day 1 (Group A, Candida): 8.54 | IL1B ratio of PBMC absolute gene expression day 15/day 1 (Group A, Candida): 0.17 | IL1B ratio of PBMC absolute gene expression day 57/day 1 (Group A, Candida): 1.73 | IL1R1 ratio of PBMC absolute gene expression day 15/day 1 (Group A, Candida): 0.69 | IL1R1 ratio of PBMC absolute gene expression day 57/day 1 (Group A, Candida): 0.9 | IL1RN ratio of PBMC absolute gene expression day 15/day 1 (Group A, Candida): 1 | IL1RN ratio of PBMC absolute gene expression day 57/day 1 (Group A, Candida): 1.91 | IL2 ratio of PBMC absolute gene expression day 15/day 1 (Group A, Candida): 0.75 | IL2 ratio of PBMC absolute gene expression day 57/day 1 (Group A, Candida): 6.31 | IL4 ratio of PBMC absolute gene expression day 15/day 1 (Group A, Candida): 1.12 | IL4 ratio of PBMC absolute gene expression day 57/day 1 (Group A, Candida): 1.52 | IL5 ratio of PBMC absolute gene expression day 15/day 1 (Group A, Candida): 1.23 | IL5 ratio of PBMC absolute gene expression day 57/day 1 (Group A, Candida): 1.10 | IL8 ratio of PBMC absolute gene expression day 15/day 1 (Group A, Candida): 0.44 | IL8 ratio of PBMC absolute gene expression day 57/day 1 (Group A, Candida): 1.89 | IL10 ratio of PBMC absolute gene expression day 15/day 1 (Group A, Candida): 0.6 | IL10 ratio of PBMC absolute gene expression day 57/day 1 (Group A, Candida): 1.12 | IL12A ratio of PBMC absolute gene expression day 15/day 1 (Group A, Candida): 1.02 | IL12A ratio of PBMC absolute gene expression day 57/day 1 (Group A, Candida): 1.64 | IL12B ratio of PBMC absolute gene expression day 15/day 1 (Group A, Candida): 0.78 | IL12B ratio of PBMC absolute gene expression day 57/day 1 (Group A, Candida): 3.61 | IL13 ratio of PBMC absolute gene expression day 15/day 1 (Group A, Candida): 0.6 | IL13 ratio of PBMC absolute gene expression day 57/day 1 (Group A, Candida): 4.28 | IL15 ratio of PBMC absolute gene expression day 15/day 1 (Group A, Candida): 1.09 | IL15 ratio of PBMC absolute gene expression day 57/day 1 (Group A, Candida): 2.18 | IL16 ratio of PBMC absolute gene expression day 15/day 1 (Group A, Candida): 1.02 | IL16 ratio of PBMC absolute gene expression day 57/day 1 (Group A, Candida): 0.81 | JAK2 ratio of PBMC absolute gene expression day 15/day 1 (Group A, Candida): 1.1 | JAK2 ratio of PBMC absolute gene expression day 57/day 1 (Group A, Candida): 1.68 | LTA ratio of PBMC absolute gene expression day 15/day 1 (Group A, Candida): 1.15 | LTA ratio of PBMC absolute gene expression day 57/day 1 (Group A, Candida): 1.94 | LYZ ratio of PBMC absolute gene expression day 15/day 1 (Group A, Candida): 2.22 | LYZ ratio of PBMC absolute gene expression day 57/day 1 (Group A, Candida): 0.93 | MX1 ratio of PBMC absolute gene expression day 15/day 1 (Group A, Candida): 1.28 | MX1 ratio of PBMC absolute gene expression day 57/day 1 (Group A, Candida): 1.34 | NOD1 ratio of PBMC absolute gene expression day 15/day 1 (Group A, Candida): 1.19 | NOD1 ratio of PBMC absolute gene expression day 57/day 1 (Group A, Candida): 1.18 | SPP1 ratio of PBMC absolute gene expression day 15/day 1 (Group A, Candida): 2.32 | SPP1 ratio of PBMC absolute gene expression day 57/day 1 (Group A, Candida): 7.34 | STAT1 ratio of PBMC absolute gene expression day 15/day 1 (Group A, Candida): 1.12 | STAT1 ratio of PBMC absolute gene expression day 57/day 1 (Group A, Candida): 3.36 | STAT4 ratio of PBMC absolute gene expression day 15/day 1 (Group A, Candida): 1.07 | STAT4 ratio of PBMC absolute gene expression day 57/day 1 (Group A, Candida): 1.76 | TNF ratio of PBMC absolute gene expression day 15/day 1 (Group A, Candida): 0.85 | TNF ratio of PBMC absolute gene expression day 57/day 1 (Group A, Candida): 1.22 | TNFSF10 ratio of PBMC absolute gene expression day 15/day 1 (Group A, Candida): 1.02 | TNFSF10 ratio of PBMC absolute gene expression day 57/day 1 (Group A, Candida): 1.52 | TNFSF13B ratio of PBMC absolute gene expression day 15/day 1 (Group A, Candida): 1.14 | TNFSF13B ratio of PBMC absolute gene expression day 57/day 1 (Group A, Candida): 1.62 | CCL2 ratio of PBMC absolute gene expression day 15/day 1 [1]: 0.88 | CCL2 ratio of PBMC absolute gene expression day 57/day 1 [1]: 1.21 | CCL3 ratio of PBMC absolute gene expression day 15/day 1 [1]: 1.31 | CCL3 ratio of PBMC absolute gene expression day 57/day 1 [1]: 4.60 | CCL7 ratio of PBMC absolute gene expression day 15/day 1 [1]: 0.92 | CCL7 ratio of PBMC absolute gene expression day 57/day 1 [1]: 0.75 | CCR5 ratio of PBMC absolute gene expression day 15/day 1 [1]: 1.00 | CCR5 ratio of PBMC absolute gene expression day 57/day 1 [1]: 0.93 | CD80 ratio of PBMC absolute gene expression day 15/day 1 [1]: 0.90 | CD80 ratio of PBMC absolute gene expression day 57/day 1 [1]: 0.93 | CXCL2 ratio of PBMC absolute gene expression day 15/day 1 [1]: 1.02 | CXCL2 ratio of PBMC absolute gene expression day 57/day 1 [1]: 2.79 | CXCL5 ratio of PBMC absolute gene expression day 15/day 1 [1]: 1.24 | CXCL5 ratio of PBMC absolute gene expression day 57/day 1 [1]: 6.03 | CXCL9 ratio of PBMC absolute gene expression day 15/day 1 [1]: 1.12 | CXCL9 ratio of PBMC absolute gene expression day 57/day 1 [1]: 0.91 | CXCL10 ratio of PBMC absolute gene expression day 15/day 1 [1]: 0.82 | CXCL10 ratio of PBMC absolute gene expression day 57/day 1 [1]: 0.49 | CXCL11 ratio of PBMC absolute gene expression day 15/day 1 [1]: 0.53 | CXCL11 ratio of PBMC absolute gene expression day 57/day 1 [1]: 0.31 | DDX58 ratio of PBMC absolute gene expression day 15/day 1 [1]: 0.72 | DDX58 ratio of PBMC absolute gene expression day 57/day 1 [1]: 0.94 | FOXP3 ratio of PBMC absolute gene expression day 15/day 1 [1]: 1.15 | FOXP3 ratio of PBMC absolute gene expression day 57/day 1 [1]: 1.11 | GATA3 ratio of PBMC absolute gene expression day 15/day 1 [1]: 2.84 | GATA3 ratio of PBMC absolute gene expression day 57/day 1 [1]: 2.6 | ICAM1 ratio of PBMC absolute gene expression day 15/day 1 [1]: 1.05 | ICAM1 ratio of PBMC absolute gene expression day 57/day 1 [1]: 0.77 | IFNA1 ratio of PBMC absolute gene expression day 15/day 1 [1]: 0.80 | IFNA1 ratio of PBMC absolute gene expression day 57/day 1 [1]: 1.29 | IFNB1 ratio of PBMC absolute gene expression day 15/day 1 [1]: 0.65

— patent US11957783B2, “Topical immunosensitizers to treat viral and fungal infections” (Squarex, LLC, priority 2018, dated 2024)
